Assay results: PMC12297016 (Iranian Journal of Pharmaceutical Research : IJPR, 2025)

Key:
[1] = target: T1, recombinant human matrix metalloproteinase 9 (rhMMP-9) (Homo sapiens, UniProt P14780); test: Protease activity assay of rhMMP-9 with casein as substrate; format: biochemical; details: for α: KI = α × Ki; for type of inhibition: Lineweaver-Burk and secondary plots, mixed type; for IC50: casein degradation assay, inhibitor 0 to 70 µM, read-out: IC50 of rhMMP-9 activity inhibition; for Ki: dissociation constant of EI complex, from secondary plot of slope against [I]; for αKi (KI): dissociation constant of ESI complex, from Dixon plot of 1/V'max against [I]; for K m: casein substrate
T1 construct: amino acid residues from 107 to 707, consisted of the catalytic domain (Phe107 to Gly223); His-tag; made in house; host or cells: Escherichia coli BL21 (DE3), vector pET21a(+)
T1 sequence (P14780 107-707): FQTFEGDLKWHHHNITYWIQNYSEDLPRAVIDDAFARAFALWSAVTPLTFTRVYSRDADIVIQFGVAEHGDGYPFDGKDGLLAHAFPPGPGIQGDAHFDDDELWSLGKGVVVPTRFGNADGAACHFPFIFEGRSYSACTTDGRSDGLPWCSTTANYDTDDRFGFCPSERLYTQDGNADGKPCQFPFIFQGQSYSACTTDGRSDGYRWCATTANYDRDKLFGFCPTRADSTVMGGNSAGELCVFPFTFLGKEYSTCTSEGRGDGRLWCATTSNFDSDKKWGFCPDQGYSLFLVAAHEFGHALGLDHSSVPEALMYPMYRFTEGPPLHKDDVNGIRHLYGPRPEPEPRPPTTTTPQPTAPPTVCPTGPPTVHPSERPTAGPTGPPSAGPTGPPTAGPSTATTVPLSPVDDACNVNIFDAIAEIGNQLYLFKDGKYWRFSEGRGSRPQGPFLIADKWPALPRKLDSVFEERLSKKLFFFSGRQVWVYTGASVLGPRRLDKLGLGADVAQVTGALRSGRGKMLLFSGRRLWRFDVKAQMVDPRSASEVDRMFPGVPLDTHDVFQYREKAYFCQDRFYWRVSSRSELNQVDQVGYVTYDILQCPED
Procedure: To determine the hydrolyzing activity of rhMMP-9, casein was used as a substrate. A casein solution (1% w/v) was added to the extracted and purified rhMMP-9, and the final volume was adjusted to 1 mL with Tris buffer (pH 7). The expression product and substrate mix were incubated with shaking for 5 minutes at 37°C. To stop the process, 1 mL of cold trichloroacetic acid (TCA, 15%) was added to the mixture. This mixture was then kept at -20°C for 10 minutes and centrifuged twice (8000 g, 5 min, 4°C) to separate soluble peptides. The pellet was discarded, and the absorbance of the supernatant soluble peptides fraction was evaluated at 280 nm. All spectrophotometric measurements were accompanied by a blank assay in the absence of the enzyme. Enzyme activity was calculated from the tyrosine standard curve and expressed as mean ± SD in units of [µmol/min] after at least five repeats ([22]). SPSS software version 9 was used for data interpretation, and all graphs were drawn and kinetic parameters calculated using an Excel spreadsheet software program. The Quest Graph IC50 Calculator was used for the calculation of IC50 values.
A cell-free casein degradation-based assay was employed to evaluate the influence of ellagitannins on the catalytic activity of the rhMMP-9 enzyme. By adding various fixed quantities of casein as a substrate and a fixed concentration of enzyme, the enzyme activity was determined in the presence of different concentrations of ellagitannins (ranging from 0 to 70 µM). The rate of tyrosine production by the protease activity of rhMMP-9 was assessed based on a calibration curve over 1 minute, which refers to enzyme activity.
To examine the effects of inhibitors on the kinetic parameters of rhMMP-9, Michaelis-Menten saturation curves and Lineweaver-Burk plots were drawn in the presence of various concentrations of inhibitors (5 - 30 µM) and substrate range (0 - 0.3%) (Figure 4).
The first of these is a Dixon plot of 1/Vʹmax against the concentration of inhibitor [I], from which the value of -αKi as the x-intercept can be determined (Figure 5A - C). The second is the slope of the primary plot (from the Lineweaver-Burk plot) against the concentration of inhibitor [I], from which the value of -Ki as the x-intercept can be determined (Figure 5D - F).

[2] = target: T1, recombinant human matrix metalloproteinase 9 (rhMMP-9); test: Surface plasmon resonance (SPR) binding to immobilized rhMMP-9; details: 37°C, 5-40 µM
Description: A dual-flow channel MP-SPR Navi 210A analyzer (BioNavis Ltd., Tampere-region, Finland) was used to evaluate SPR kinetic parameters on gold chips (BioNavis Ltd., Finland). A solution of both EDC/NHS ((N-(3-dimethylaminopropyl)-N′-ethylcarbodiimide hydrochloride) (0.2 M) and NHS (N-hydroxysuccinimide) (0.05 M)) was employed for the activation of […] carboxylic groups. Immobilization of the rMMP-9 enzyme on the CMD Au chip was accomplished by a standard amine coupling protocol. For blocking unreacted sites, ethanolamine–HCl (1 M, pH 8.5) reagent was used.
The SPR technique, a current method for examining the interaction between ligand and protein, was employed in this research. As presented in Figure 6, association (Ka) and dissociation (Kd) constants were evaluated through sensorgrams (RU vs. time). Five […] concentrations for each of the three natural compounds were used (5, 10, 20, 30, 40 µM).
The equilibrium constant KD, which evaluates the affinity of a ligand to a protein, was determined using the formula: =Kd/Ka . A lower value of the KD constant indicates a higher interaction affinity between the protein and ligand.

## O=c1oc2cc(O)ccc2c2ccc(O)cc12 [Uro A, urolithin A]
[1]
  α: 0.25
  type of inhibition: non-competitive-uncompetitive pattern
  IC50: 33.3 µM
  Ki: 12 µM
  αKi (KI): 3.03 µM
  extent of inhibition of catalytic activity at high concentrations: entirely inhibit
[1]; inhibitor 5 µM
  V max: 0.120 ± 0.006 µmol/min
  K m: 0.085 ± 0.004%
[1]; inhibitor 15 µM
  V max: 0.04 ± 0.002 µmol/min
  K m: 0.1 ± 0.005%
[2]
  Kd: 67 µM

## O=c1oc2cc(O)ccc2c2ccccc12 [Uro B, urolithin B]
[1]
  α: 0.13
  type of inhibition: non-competitive-uncompetitive pattern
  IC50: 13.2 µM
  Ki: 22.5 µM
  αKi (KI): 3.02 µM
  extent of inhibition of catalytic activity at high concentrations: entirely inhibit
[1]; inhibitor 5 µM
  V max: 0.079 ± 0.004 µmol/min
  K m: 0.030 ± 0.002%
[1]; inhibitor 15 µM
  V max: 0.033 ± 0.002 µmol/min
  K m: 0.020 ± 0.001%
[2]
  Kd: 43 µM

## O=c1oc2c(O)c(O)cc3c(=O)oc4c(O)c(O)cc1c4c23 [EA, ellagic acid]
[1]
  α: 1.11
  type of inhibition: competitive-non-competitive pattern
  IC50: 17.1 µM
  Ki: 24.9 µM
[1]; in µM
  αKi (KI): 27.57
[1]; high concentration (60 µM)
  reduction of catalytic activity: 90%
[1]; inhibitor 15 µM
  V max: 0.093 ± 0.005 µmol/min
  K m: 0.03 ± 0.002%
[1]; inhibitor 30 µM
  V max: 0.078 ± 0.004 µmol/min
  K m: 0.03 ± 0.002%
[2]
  Kd: 113 µM
